In patent US8735140B2, “Preservation and composition of bioprocess algae for production of lipids, seedstock, and feed” (Kuehnle AgroSystems, Inc., priority 2008, dated 2014):

Test system: algae strains KAS503, KAS633 and KAS635
Test: Sorbitol treatment prior to alginate embedding, cell recovery after preservation
Type: cell-based
Procedure: In one specific embodiment, cells are treated with trehalose solution at various concentrations and left overnight. Cells are centrifuged the next day to remove the trehalose solution, and then re-suspended in sterile 0.5M D-sorbitol (Fisher Scientific […]) dissolved in salt or fresh-water medium as required by specific algae species. Cells are left to stand for 2 hours with mild agitation. After 2 hours, cells are centrifuged again to remove the 0.5M sorbitol solution and re-suspended in fresh or salt-water medium. Cells are counted after the re-suspension. Cell viability is determined by comparing the cell growth in control set with the experimental set. Specifically, cell counts are performed on all samples. The averaged density value (in cells per ml) for all the cultures after treatment is defined as “rejuvenation cell count.” In some samples, the percent recovery of cells immediately after storage is also determined. The formulae are illustrated as follows: Growth=(rejuvenation cell count)/(initial cell count) Cell recovery after storage=(cell density after storage)/(initial cell density), with controls set at 100% cell recovery. Viability after storage and rejuvenation in nutrient medium=(Growth of treatment)/(Growth of control)×100%, with controls set at 100% viability

OC[C@@H](O)[C@@H](O)[C@H](O)[C@@H](O)CO [sorbitol, D-sorbitol]
Cell recovery after preservation: increases cell recovery
